Source: the NIST ThermoML archive (doi:10.1021/acs.jced.8b01146)
± gives the expanded uncertainty stated by the source.

Conditions: 100 kPa, Liquid, Vibrating tube method

## CC1=CCC(=O)O1 [5-methylfuran-2(3H)-one]
288.15 K
  mass density: 1099.32 ± 0.7 kg/m3
293.15 K
  mass density: 1093.94 ± 0.7 kg/m3
298.15 K
  mass density: 1088.55 ± 0.69 kg/m3
303.15 K
  mass density: 1083.16 ± 0.69 kg/m3
308.15 K
  mass density: 1077.77 ± 0.69 kg/m3
313.15 K
  mass density: 1072.38 ± 0.68 kg/m3
318.15 K
  mass density: 1066.98 ± 0.68 kg/m3
323.15 K
  mass density: 1061.58 ± 0.67 kg/m3

## CCC1CCC(=O)O1 (stereo not given) [2(3H)-furanone, 5-ethyldihydro-]
288.15 K
  mass density: 1029.16 ± 0.54 kg/m3
293.15 K
  mass density: 1024.74 ± 0.54 kg/m3
298.15 K
  mass density: 1020.33 ± 0.53 kg/m3
303.15 K
  mass density: 1015.91 ± 0.53 kg/m3
308.15 K
  mass density: 1011.49 ± 0.53 kg/m3
313.15 K
  mass density: 1007.07 ± 0.53 kg/m3
318.15 K
  mass density: 1002.65 ± 0.53 kg/m3
323.15 K
  mass density: 998.229 ± 0.53 kg/m3

## O=C1CCCO1 [γ-butyrolactone]
288.15 K
  mass density: 1134.26 ± 0.51 kg/m3
293.15 K
  mass density: 1129.35 ± 0.51 kg/m3
298.15 K
  mass density: 1124.44 ± 0.51 kg/m3
303.15 K
  mass density: 1119.53 ± 0.51 kg/m3
308.15 K
  mass density: 1114.61 ± 0.51 kg/m3
313.15 K
  mass density: 1109.69 ± 0.51 kg/m3
318.15 K
  mass density: 1104.77 ± 0.51 kg/m3
323.15 K
  mass density: 1099.86 ± 0.51 kg/m3

## CC1CCC(=O)O1 (stereo not given) [γ-valerolactone]
288.15 K
  mass density: 1058.51 ± 0.51 kg/m3
293.15 K
  mass density: 1053.81 ± 0.51 kg/m3
298.15 K
  mass density: 1049.1 ± 0.51 kg/m3
303.15 K
  mass density: 1044.4 ± 0.51 kg/m3
308.15 K
  mass density: 1039.69 ± 0.51 kg/m3
313.15 K
  mass density: 1034.98 ± 0.51 kg/m3
318.15 K
  mass density: 1030.27 ± 0.51 kg/m3
323.15 K
  mass density: 1025.56 ± 0.51 kg/m3

## CC1CCCC(=O)O1 (stereo not given) [2H-pyran-2-one, tetrahydro-6-methyl-]
288.15 K
  mass density: 1053.81 ± 0.51 kg/m3
293.15 K
  mass density: 1049.47 ± 0.51 kg/m3
298.15 K
  mass density: 1045.14 ± 0.51 kg/m3
303.15 K
  mass density: 1040.81 ± 0.51 kg/m3
308.15 K
  mass density: 1036.48 ± 0.51 kg/m3
313.15 K
  mass density: 1032.15 ± 0.51 kg/m3
318.15 K
  mass density: 1027.82 ± 0.51 kg/m3
323.15 K
  mass density: 1023.51 ± 0.51 kg/m3
